Active and inactive are the calls of the source. The calls are words filed in the database; no cut-off is given here.
Assays:
[1] = Induction of tRNA-UCCA binding to T box antiterminator RNA AM1A at 200 uM by FRET method
[2] = Binding affinity to T box antiterminator RNA AM1A by FRET
[3] = Binding affinity to T box antiterminator RNA

Activity [1]: Active
Kd [2]: 8 µM
Kd [3]: 8 µM
Structure (SMILES): NC[C@@H]1O[C@H](O[C@H]2[C@@H](O)[C@H](O[C@@H]3[C@@H](O)[C@H](N)C[C@H](N)[C@H]3O[C@H]3O[C@H](CN)[C@@H](O)[C@H](O)[C@H]3N)O[C@@H]2CO)[C@H](N)[C@@H](O)[C@@H]1O [FRAMYCETIN]
